# Assay results from patent US20140155327A1, “Process for the Synchronization of Ovulation for Timed Breeding Without Heat Detection” (priority 2003, published 2014).
# Tested on: postpartum sows
# Test: Single timed injection 96 hours post-weaning and single timed insemination without estrus detection in postpartum sows (Example 3)
# Format: in vivo, swine
# Settings: 50 mcg at 96 hours post-weaning
# Method: Approximately 170 postpartum sows were randomly divided into two equal groups comprised of controls and treated. Following weaning, the controls were detected for estrus and bred following the normal standard operating procedures for the farms on which they resided. The treated sows received a 50 mcg dose of deslorelin in SAIB at 96 hours post-weaning and were bred with a single insemination 28+/−2 hours later with no regard to estrus detection. The sows were examined for pregnancy by ultrasound at 21 days and slaughtered around 28 days post breeding. The entire reproductive tract was removed and corpora lutea and embryos were counted.
smiles,measurement,setting,value
"CCNC(=O)[C@@H]1CCCN1C(=O)[C@H](CCCN=C(N)N)NC(=O)[C@H](CC(C)C)NC(=O)[C@@H](Cc1c[nH]c2ccccc12)NC(=O)[C@H](Cc1ccc(O)cc1)NC(=O)[C@H](CO)NC(=O)[C@H](Cc1c[nH]c2ccccc12)NC(=O)[C@H](Cc1cnc[nH]1)NC(=O)[C@@H]1CCC(=O)N1 [Deslorelin, deslorelin]",Sows Pregnant,"single insemination 28+/-2 hours later, 84 in group",60
same,Embryo Survival,slaughter around 28 days post breeding,64%
